{
  "source": "patent US10175230B2",
  "about": "“Use of biomarkers for evaluating the effectiveness of active ingredients” (LABORATOIRES EXPANSCIENCE, priority 2013, dated 2019)",
  "key": {"[1]": {"test_system": "PAD1", "test": "Gene expression of peptidylarginine deiminase (PAD1) by RT-PCR", "assay_type": "cell-based, human", "details": "10^−7 M, 48 hours, positive reference", "description": "Normal human epidermal keratinocytes, cultured in differentiation-inducing medium (supplemented with Ca++), were incubated for 48 hours in the presence of 0.005% and 0.05% avocado perseose or 10^-7M vitamin D3 (1α,25-dihydroxyvitamin D3; Sigma), positive reference.\nAt the conclusion of the treatment, the RNA were extracted and the gene expression of PAD1 was evaluated by RT-PCR; the reference gene GAPDH was used to normalize the results."}, "[2]": {"test_system": "Ehrlich ascites carcinoma tumor cells", "details": "perseitol associated with a potassium ion; Shibuya et al. 1999; cited from earlier work"}, "[3]": {"test_system": "hyaluronic acid", "test": "Production of hyaluronic acid by keratinocytes, ELISA of supernatants", "assay_type": "cell-based, human", "details": "10^−7 M, 24 hours, positive reference", "description": "Normal human epidermal keratinocytes were incubated in the presence of 0.005% and 0.05% avocado perseose or 10^-7 M retinoic acid (all-trans-retinoic acid; Sigma), positive reference.\nAfter 24 hours of incubation, hyaluronic acid produced by the keratinocytes was assayed in the cultured supernatants with an ELISA (Tebu). The quantity of hyaluronic acid measured was related to the number of living cells estimated by means of a neutral red assay."}},
  "note": "Marks after values point to notes of the source that are not given here.",
  "data": [
    {"smiles": "C=C1/C(=C\\C=C2/CCC[C@]3(C)[C@@H]([C@H](C)CCCC(C)(C)O)CC[C@@H]23)C[C@@H](O)C[C@@H]1O", "note": "[Vitamin D3, 1α,25-dihydroxyvitamin D3]", "values": [
      {"measurement": "PAD1 (Relative Quantity normalized by GAPDH)", "setting": "[1]", "result": 2.66},
      {"measurement": "Stimulation of PAD1 gene expression versus control cells", "setting": "[1]", "result": "+166% **"}
    ]},
    {"smiles": "OCC(O)C(O)C(O)C(O)C(O)CO", "note": "(centres unmarked) [perseitol, Perseitol]", "values": [
      {"measurement": "Incorporation of 3H-leucine", "setting": "[2]", "result": "inhibits"}
    ]},
    {"smiles": "CC1=C(/C=C/C(C)=C/C=C/C(C)=C/C(=O)O)C(C)(C)CCC1", "note": "[Retinoic acid, all-trans-retinoic acid]", "values": [
      {"measurement": "Hyaluronic acid (ng/ml/living cells)", "setting": "[3]", "result": "544.024 ± 34.026", "unit": "ng/ml/living cells"},
      {"measurement": "Increase of hyaluronic acid produced versus control cells", "setting": "[3]", "result": "+119% ***"}
    ]}
  ]
}
